# According to PubChem BioAssay AID2060501 (Molecular Pharmacology Branch, DTP, NCI, 2025):
# System: 282377-053-R-J1-PDC complex spheroids, viability
# Assay: Anticancer human tumor 282377-053-R-J1-PDC patient-derived colon adenocarcinoma cell line growth inhibition [GQUAD]
# Details: for IC50: curve of first compound; for viability, T/C: stronger effect = lower value
# Procedure, shortened: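 Tumor cells were grown as complex spheroids with HUVEC endothelial cells and mesenchymal stem cells as stroma. G-quadruplex stabilizers were combined with targeted agents over half-log dilutions from near the clinical Cmax, or from 10 microM.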
# [1] = second compound 0.0316 µM, first compound 0.0316 µM
# [2] = second compound 0.0316 µM, first compound 0.1 µM
# [3] = second compound 0.0316 µM, first compound 0.316 µM
# [4] = second compound 0.0316 µM, first compound 1 µM
# [5] = second compound 0.0316 µM, first compound 3.16 µM
# [6] = second compound 0.0316 µM, first compound 10 µM
# [7] = second compound 0.1 µM, first compound 0.0316 µM
# [8] = second compound 0.1 µM, first compound 0.1 µM
# [9] = second compound 0.1 µM, first compound 0.316 µM
# [10] = second compound 0.1 µM, first compound 1 µM
# [11] = second compound 0.1 µM, first compound 3.16 µM
# [12] = second compound 0.1 µM, first compound 10 µM
# [13] = second compound 0.316 µM, first compound 0.0316 µM
# [14] = second compound 0.316 µM, first compound 0.1 µM
# [15] = second compound 0.316 µM, first compound 0.316 µM
# [16] = second compound 0.316 µM, first compound 1 µM
# [17] = second compound 0.316 µM, first compound 3.16 µM
# [18] = second compound 0.316 µM, first compound 10 µM
# [19] = second compound 1 µM, first compound 0.0316 µM
# [20] = second compound 1 µM, first compound 0.1 µM
# [21] = second compound 1 µM, first compound 0.316 µM
# [22] = second compound 1 µM, first compound 1 µM
# [23] = second compound 1 µM, first compound 3.16 µM
# [24] = second compound 1 µM, first compound 10 µM
# [25] = second compound 3.16 µM, first compound 0.0316 µM
# [26] = second compound 3.16 µM, first compound 0.1 µM
# [27] = second compound 3.16 µM, first compound 0.316 µM
# [28] = second compound 3.16 µM, first compound 1 µM
# [29] = second compound 3.16 µM, first compound 3.16 µM
# [30] = second compound 3.16 µM, first compound 10 µM
# [31] = second compound 10 µM, first compound 0.0316 µM
# [32] = second compound 10 µM, first compound 0.1 µM
# [33] = second compound 10 µM, first compound 0.316 µM
# [34] = second compound 10 µM, first compound 1 µM
# [35] = second compound 10 µM, first compound 3.16 µM
# [36] = second compound 10 µM, first compound 10 µM
# 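Note: spheroids exposed to compounds for 7 days before readout.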
# 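Throughout, for viability, T/C: percent of vehicle DMSO control viability with 100% = untreated-like growth.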
smiles,measurement,setting,value
C#Cc1c(F)ccc2cc(O)cc(-c3ncc4c(N5CC6CCC(C5)N6)nc(OCC56CCCN5CC(F)C6)nc4c3F)c12 (stereo unspecified) + CN(C)c1ccc(Nc2c3ccc(NC(=O)CCN4CCCC4)cc3nc3cc(NC(=O)CCN4CCCC4)ccc23)cc1,IC50,second compound 0.0316 µM,> 10 µM
same,IC50,second compound 0.1 µM,> 10 µM
same,IC50,second compound 0.316 µM,> 10 µM
same,IC50,second compound 1 µM,> 10 µM
same,IC50,second compound 3.16 µM,> 10 µM
same,IC50,second compound 10 µM,> 10 µM
same,"viability, T/C",[1],98%
same,"viability, T/C",[2],108%
same,"viability, T/C",[3],89.1%
same,"viability, T/C",[4],98.2%
same,"viability, T/C",[5],84.2%
same,"viability, T/C",[6],82.4%
same,"viability, T/C",[7],103%
same,"viability, T/C",[8],97.1%
same,"viability, T/C",[9],79.2%
same,"viability, T/C",[10],74.5%
same,"viability, T/C",[11],88.7%
same,"viability, T/C",[12],67.6%
same,"viability, T/C",[13],93.7%
same,"viability, T/C",[14],87.7%
same,"viability, T/C",[15],87.4%
same,"viability, T/C",[16],79.9%
same,"viability, T/C",[17],73.1%
same,"viability, T/C",[18],74%
same,"viability, T/C",[19],87.5%
same,"viability, T/C",[20],78.1%
same,"viability, T/C",[21],70.7%
same,"viability, T/C",[22],89.9%
same,"viability, T/C",[23],91.2%
same,"viability, T/C",[24],78.4%
same,"viability, T/C",[25],78.9%
same,"viability, T/C",[26],75.2%
same,"viability, T/C",[27],86.6%
same,"viability, T/C",[28],77.3%
same,"viability, T/C",[29],91.7%
same,"viability, T/C",[30],88.7%
same,"viability, T/C",[31],83.1%
same,"viability, T/C",[32],81.8%
same,"viability, T/C",[33],91.8%
same,"viability, T/C",[34],73.5%
same,"viability, T/C",[35],90.8%
same,"viability, T/C",[36],87.6%
CC(=O)O[C@H]1C(=O)[C@@]2(C)[C@H]([C@H](OC(=O)c3ccccc3)[C@]3(O)C[C@H](OC(=O)[C@H](O)[C@@H](NC(=O)c4ccccc4)c4ccccc4)C(C)=C1C3(C)C)[C@]1(OC(C)=O)CO[C@@H]1C[C@@H]2O + CN(C)c1ccc(Nc2c3ccc(NC(=O)CCN4CCCC4)cc3nc3cc(NC(=O)CCN4CCCC4)ccc23)cc1,IC50,second compound 0.0316 µM,0.042 µM
same,IC50,second compound 0.1 µM,0.0447 µM
same,IC50,second compound 0.316 µM,0.0488 µM
same,IC50,second compound 1 µM,0.0347 µM
same,IC50,second compound 3.16 µM,0.0391 µM
same,IC50,second compound 10 µM,< 0.0316 µM
same,"viability, T/C",[1],59.7%
same,"viability, T/C",[2],14.9%
same,"viability, T/C",[3],18.9%
same,"viability, T/C",[4],18.1%
same,"viability, T/C",[5],22%
same,"viability, T/C",[6],25.2%
same,"viability, T/C",[7],63.1%
same,"viability, T/C",[8],15.6%
same,"viability, T/C",[9],17.4%
same,"viability, T/C",[10],17.6%
same,"viability, T/C",[11],21.3%
same,"viability, T/C",[12],25.8%
same,"viability, T/C",[13],68%
same,"viability, T/C",[14],17.1%
same,"viability, T/C",[15],18.5%
same,"viability, T/C",[16],18.1%
same,"viability, T/C",[17],19.1%
same,"viability, T/C",[18],28.9%
same,"viability, T/C",[19],52.5%
same,"viability, T/C",[20],15.7%
same,"viability, T/C",[21],18.1%
same,"viability, T/C",[22],17.4%
same,"viability, T/C",[23],26.8%
same,"viability, T/C",[24],25%
same,"viability, T/C",[25],56.7%
same,"viability, T/C",[26],18.4%
same,"viability, T/C",[27],16.8%
same,"viability, T/C",[28],17.2%
same,"viability, T/C",[29],19.2%
same,"viability, T/C",[30],24.7%
same,"viability, T/C",[31],47.2%
same,"viability, T/C",[32],14.8%
same,"viability, T/C",[33],14.5%
same,"viability, T/C",[34],18.8%
same,"viability, T/C",[35],22.8%
same,"viability, T/C",[36],28.4%
CC(C)(O)C1CCC(Nc2ccc3ncc(-c4cccc(C(F)(F)F)c4)n3n2)CC1 (stereo unspecified) + CN(C)c1ccc(Nc2c3ccc(NC(=O)CCN4CCCC4)cc3nc3cc(NC(=O)CCN4CCCC4)ccc23)cc1,IC50,second compound 0.0316 µM,1.8 µM
same,IC50,second compound 0.1 µM,2.15 µM
same,IC50,second compound 0.316 µM,2 µM
same,IC50,second compound 1 µM,1.75 µM
same,IC50,second compound 3.16 µM,1.65 µM
same,IC50,second compound 10 µM,1.43 µM
same,"viability, T/C",[1],121%
same,"viability, T/C",[2],100%
same,"viability, T/C",[3],74%
same,"viability, T/C",[4],76.4%
same,"viability, T/C",[5],21%
same,"viability, T/C",[6],29%
same,"viability, T/C",[7],123%
same,"viability, T/C",[8],85%
same,"viability, T/C",[9],76.7%
same,"viability, T/C",[10],87.4%
same,"viability, T/C",[11],22.7%
same,"viability, T/C",[12],39.8%
same,"viability, T/C",[13],106%
same,"viability, T/C",[14],86%
same,"viability, T/C",[15],64.9%
same,"viability, T/C",[16],86.5%
same,"viability, T/C",[17],22.2%
same,"viability, T/C",[18],29.8%
same,"viability, T/C",[19],94%
same,"viability, T/C",[20],75.4%
same,"viability, T/C",[21],85.6%
same,"viability, T/C",[22],73.1%
same,"viability, T/C",[23],19.6%
same,"viability, T/C",[24],31.3%
same,"viability, T/C",[25],100%
same,"viability, T/C",[26],97.2%
same,"viability, T/C",[27],105%
same,"viability, T/C",[28],71%
same,"viability, T/C",[29],23.4%
same,"viability, T/C",[30],21.8%
same,"viability, T/C",[31],97.3%
same,"viability, T/C",[32],95.5%
same,"viability, T/C",[33],83.2%
same,"viability, T/C",[34],64.7%
same,"viability, T/C",[35],18.3%
same,"viability, T/C",[36],19.1%
